Data as given in the supplement of paper PMC10307832.

Experiments:
Assay in all cases: relative viability (nuclei count vs DMSO), 5 days (fraction); higher = more cells survive
[1] = compound: C1CSC2=C(C(=O)N1)SC3=C2C=C(C=C3)O [kb NB 142-70] + CC(C)C[C@H](NC(=O)[C@H](Cc1ccccc1)NC(=O)c1cnccn1)B(O)O [Bortezomib] (partner 0.002 µM)
In short: (§1)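 Lung cancer cell lines in 1536-well plates were dosed by pin tool the day after seeding, either with one drug alone or with a fixed anchor-drug dose plus five library-drug doses (not always all listed) in √10 steps. After 5 days, cells were fixed and their nuclei stained in one step (final 0.05% Triton X-100, 1% formaldehyde, 1 ug/ml Hoechst), then counted on 4× images. Relative viability is the nuclei count in treated wells divided by that in vehicle wells. Values are medians of duplicate plates.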

[2] = compound: NCC(=O)Nc1ccc(-n2nc(C(F)(F)F)cc2-c2ccc3c(ccc4ccccc43)c2)cc1 + Cc1nc(Nc2ncc(C(=O)Nc3c(C)cccc3Cl)s2)cc(N2CCN(CCO)CC2)n1 [Dasatinib] (partner 0.075 µM)
In short: as §1

[3] = compound: C1CSC2=C(C(=O)N1)SC3=C2C=C(C=C3)O [kb NB 142-70] + C[C@]1(O)C[C@@H](c2nc(-c3ccc4ccc(-c5ccccc5)nc4c3)c3c(N)nccn32)C1 [Linsitinib] (partner 1 µM)
In short: as §1

[4] = compound: NCC(=O)Nc1ccc(-n2nc(C(F)(F)F)cc2-c2ccc3c(ccc4ccccc43)c2)cc1 + CC(=O)c1c(C)c2cnc(Nc3ccc(N4CCNCC4)cn3)nc2n(C2CCCC2)c1=O [Palbociclib] (partner 0.5 µM)
In short: as §1

kb NB 142-70 + Dasatinib = compound: C1CSC2=C(C(=O)N1)SC3=C2C=C(C=C3)O [kb NB 142-70] + Cc1nc(Nc2ncc(C(=O)Nc3c(C)cccc3Cl)s2)cc(N2CCN(CCO)CC2)n1 [Dasatinib] (partner 0.075 µM)
In short: as §1

Cell Line: NCI-H1651
- relative viability ([1]; first compound 0.1 µM): 0.966
- relative viability ([1]; first compound 1 µM): 0.863
- relative viability ([1]; first compound 3.162 µM): 0.857
- relative viability ([2]; first compound 0.02 µM): 0.319
- relative viability ([2]; first compound 0.06325 µM): 0.447
- relative viability ([2]; first compound 0.2 µM): 0.346
- relative viability ([2]; first compound 0.6325 µM): 0.494
- relative viability ([2]; first compound 2 µM): 0.462
- relative viability ([3]; first compound 0.1 µM): 1.04
- relative viability ([3]; first compound 1 µM): 0.929
- relative viability ([3]; first compound 3.162 µM): 0.376
- relative viability ([4]; first compound 0.02 µM): 0.508
- relative viability ([4]; first compound 0.06325 µM): 0.555
- relative viability ([4]; first compound 0.2 µM): 0.497
- relative viability ([4]; first compound 0.6325 µM): 0.539
- relative viability ([4]; first compound 2 µM): 0.541
- relative viability (kb NB 142-70 + Dasatinib; first compound 0.1 µM): 0.438
- relative viability (kb NB 142-70 + Dasatinib; first compound 1 µM): 0.44
- relative viability (kb NB 142-70 + Dasatinib; first compound 3.162 µM): 0.174

Cell Line: NCI-H1666
- relative viability ([1]; first compound 0.1 µM): 0.903
- relative viability ([1]; first compound 1 µM): 0.713
- relative viability ([1]; first compound 3.162 µM): 0.36
- relative viability ([2]; first compound 0.02 µM): 0.814
- relative viability ([2]; first compound 0.06325 µM): 0.793
- relative viability ([2]; first compound 0.2 µM): 0.881
- relative viability ([2]; first compound 0.6325 µM): 0.814
- relative viability ([2]; first compound 2 µM): 0.744
- relative viability ([3]; first compound 0.1 µM): 0.858
- relative viability ([3]; first compound 1 µM): 0.831
- relative viability ([3]; first compound 3.162 µM): 0.483
- relative viability ([4]; first compound 0.02 µM): 0.658
- relative viability ([4]; first compound 0.06325 µM): 0.677
- relative viability ([4]; first compound 0.2 µM): 0.69
- relative viability ([4]; first compound 0.6325 µM): 0.616
- relative viability ([4]; first compound 2 µM): 0.624
- relative viability (kb NB 142-70 + Dasatinib; first compound 0.1 µM): 0.849
- relative viability (kb NB 142-70 + Dasatinib; first compound 1 µM): 0.808
- relative viability (kb NB 142-70 + Dasatinib; first compound 3.162 µM): 0.732

Cell Line: NCI-H1734
- relative viability ([1]; first compound 0.1 µM): 0.889
- relative viability ([1]; first compound 1 µM): 0.867
- relative viability ([1]; first compound 3.162 µM): 0.49
- relative viability ([2]; first compound 0.02 µM): 0.468
- relative viability ([2]; first compound 0.06325 µM): 0.472
- relative viability ([2]; first compound 0.2 µM): 0.513
- relative viability ([2]; first compound 0.6325 µM): 0.466
- relative viability ([2]; first compound 2 µM): 0.438
- relative viability ([3]; first compound 0.1 µM): 0.813
- relative viability ([3]; first compound 1 µM): 0.734
- relative viability ([3]; first compound 3.162 µM): 0.553
- relative viability ([4]; first compound 0.02 µM): 0.361
- relative viability ([4]; first compound 0.06325 µM): 0.343
- relative viability ([4]; first compound 0.2 µM): 0.345
- relative viability ([4]; first compound 0.6325 µM): 0.333
- relative viability ([4]; first compound 2 µM): 0.356
- relative viability (kb NB 142-70 + Dasatinib; first compound 0.1 µM): 0.449
- relative viability (kb NB 142-70 + Dasatinib; first compound 1 µM): 0.421
- relative viability (kb NB 142-70 + Dasatinib; first compound 3.162 µM): 0.278

Cell Line: NCI-H1755
- relative viability ([1]; first compound 0.1 µM): 1.02
- relative viability ([1]; first compound 1 µM): 0.98
- relative viability ([1]; first compound 3.162 µM): 1
- relative viability ([2]; first compound 0.02 µM): 0.435
- relative viability ([2]; first compound 0.06325 µM): 0.44
- relative viability ([2]; first compound 0.2 µM): 0.431
- relative viability ([2]; first compound 0.6325 µM): 0.45
- relative viability ([2]; first compound 2 µM): 0.414
- relative viability ([3]; first compound 0.1 µM): 1
- relative viability ([3]; first compound 1 µM): 0.991
- relative viability ([3]; first compound 3.162 µM): 1.06
- relative viability ([4]; first compound 0.02 µM): 0.48
- relative viability ([4]; first compound 0.06325 µM): 0.444
- relative viability ([4]; first compound 0.2 µM): 0.448
- relative viability ([4]; first compound 0.6325 µM): 0.471
- relative viability ([4]; first compound 2 µM): 0.434
- relative viability (kb NB 142-70 + Dasatinib; first compound 0.1 µM): 0.456
- relative viability (kb NB 142-70 + Dasatinib; first compound 1 µM): 0.425
- relative viability (kb NB 142-70 + Dasatinib; first compound 3.162 µM): 0.419

Cell Line: NCI-H1792
- relative viability ([1]; first compound 0.1 µM): 0.992
- relative viability ([1]; first compound 1 µM): 0.988
- relative viability ([1]; first compound 3.162 µM): 1.01
- relative viability ([2]; first compound 0.02 µM): 0.605
- relative viability ([2]; first compound 0.2 µM): 0.915
- relative viability ([2]; first compound 0.6325 µM): 0.836
- relative viability ([2]; first compound 2 µM): 0.726
- relative viability ([3]; first compound 0.1 µM): 0.598
- relative viability ([3]; first compound 1 µM): 0.616
- relative viability ([3]; first compound 3.162 µM): 0.688
- relative viability ([4]; first compound 0.02 µM): 0.651
- relative viability ([4]; first compound 0.2 µM): 0.696
- relative viability ([4]; first compound 0.6325 µM): 0.591
- relative viability ([4]; first compound 2 µM): 0.66
- relative viability (kb NB 142-70 + Dasatinib; first compound 0.1 µM): 0.757
- relative viability (kb NB 142-70 + Dasatinib; first compound 1 µM): 0.816
- relative viability (kb NB 142-70 + Dasatinib; first compound 3.162 µM): 0.769

Cell Line: NCI-H1915
- relative viability ([1]; first compound 0.1 µM): 0.998
- relative viability ([1]; first compound 1 µM): 1
- relative viability ([1]; first compound 3.162 µM): 0.85
- relative viability ([2]; first compound 0.02 µM): 0.26
- relative viability ([2]; first compound 0.06325 µM): 0.338
- relative viability ([2]; first compound 0.2 µM): 0.341
- relative viability ([2]; first compound 0.6325 µM): 0.318
- relative viability ([2]; first compound 2 µM): 0.363
- relative viability ([3]; first compound 0.1 µM): 1.11
- relative viability ([3]; first compound 1 µM): 1.11
- relative viability ([3]; first compound 3.162 µM): 0.716
- relative viability ([4]; first compound 0.02 µM): 0.535
- relative viability ([4]; first compound 0.06325 µM): 0.509
- relative viability ([4]; first compound 0.2 µM): 0.517
- relative viability ([4]; first compound 0.6325 µM): 0.507
- relative viability ([4]; first compound 2 µM): 0.541
- relative viability (kb NB 142-70 + Dasatinib; first compound 0.1 µM): 0.323
- relative viability (kb NB 142-70 + Dasatinib; first compound 1 µM): 0.339
- relative viability (kb NB 142-70 + Dasatinib; first compound 3.162 µM): 0.248

Cell Line: NCI-H1975
- relative viability ([1]; first compound 0.1 µM): 0.33
- relative viability ([1]; first compound 1 µM): 0.283
- relative viability ([1]; first compound 3.162 µM): 0.153
- relative viability ([2]; first compound 0.02 µM): 0.318
- relative viability ([2]; first compound 0.06325 µM): 0.387
- relative viability ([2]; first compound 0.2 µM): 0.443
- relative viability ([2]; first compound 0.6325 µM): 0.38
- relative viability ([2]; first compound 2 µM): 0.387
- relative viability ([3]; first compound 0.1 µM): 0.946
- relative viability ([3]; first compound 1 µM): 1.11
- relative viability ([3]; first compound 3.162 µM): 0.519
- relative viability ([4]; first compound 0.02 µM): 0.657
- relative viability ([4]; first compound 0.06325 µM): 0.61
- relative viability ([4]; first compound 0.2 µM): 0.615
- relative viability ([4]; first compound 0.6325 µM): 0.485
- relative viability ([4]; first compound 2 µM): 0.586
- relative viability (kb NB 142-70 + Dasatinib; first compound 0.1 µM): 0.395
- relative viability (kb NB 142-70 + Dasatinib; first compound 1 µM): 0.421
- relative viability (kb NB 142-70 + Dasatinib; first compound 3.162 µM): 0.364

Cell Line: NCI-H1993
- relative viability ([1]; first compound 0.1 µM): 1.14
- relative viability ([1]; first compound 1 µM): 1.07
- relative viability ([1]; first compound 3.162 µM): 1.17
- relative viability ([2]; first compound 0.02 µM): 0.569
- relative viability ([2]; first compound 0.06325 µM): 0.696
- relative viability ([2]; first compound 0.2 µM): 0.526
- relative viability ([2]; first compound 0.6325 µM): 0.688
- relative viability ([2]; first compound 2 µM): 0.631
- relative viability ([3]; first compound 0.1 µM): 0.792
- relative viability ([3]; first compound 1 µM): 0.715
- relative viability ([3]; first compound 3.162 µM): 0.67
- relative viability ([4]; first compound 0.02 µM): 0.658
- relative viability ([4]; first compound 0.06325 µM): 0.599
- relative viability ([4]; first compound 0.2 µM): 0.808
- relative viability ([4]; first compound 0.6325 µM): 0.696
- relative viability ([4]; first compound 2 µM): 0.706
- relative viability (kb NB 142-70 + Dasatinib; first compound 0.1 µM): 0.626
- relative viability (kb NB 142-70 + Dasatinib; first compound 1 µM): 0.478
- relative viability (kb NB 142-70 + Dasatinib; first compound 3.162 µM): 0.531

Cell Line: NCI-H2009
- relative viability ([1]; first compound 0.1 µM): 1.09
- relative viability ([1]; first compound 1 µM): 1.05
- relative viability ([1]; first compound 3.162 µM): 0.638
- relative viability ([2]; first compound 0.02 µM): 0.314
- relative viability ([2]; first compound 0.06325 µM): 0.332
- relative viability ([2]; first compound 0.2 µM): 0.327
- relative viability ([2]; first compound 0.6325 µM): 0.279
- relative viability ([2]; first compound 2 µM): 0.305
- relative viability ([3]; first compound 0.1 µM): 1.26
- relative viability ([3]; first compound 1 µM): 1.26
- relative viability ([3]; first compound 3.162 µM): 0.955
- relative viability ([4]; first compound 0.02 µM): 0.236
- relative viability ([4]; first compound 0.06325 µM): 0.147
- relative viability ([4]; first compound 0.2 µM): 0.265
- relative viability ([4]; first compound 0.6325 µM): 0.186
- relative viability ([4]; first compound 2 µM): 0.272
- relative viability (kb NB 142-70 + Dasatinib; first compound 0.1 µM): 0.321
- relative viability (kb NB 142-70 + Dasatinib; first compound 1 µM): 0.284
- relative viability (kb NB 142-70 + Dasatinib; first compound 3.162 µM): 0.155
